Patent publication US20150344457A1, “METHODS OF INHIBITING PRMT5” (EPIZYME, INC., priority 2012, published 2015)
Read-outs that look alike come from different tables or passages of the source.

Experiments:
Z-138 cells [1] = test: Z-138 Methylation Assay (In Cell Western for symmetric di-methyl arginine and DNA content); type: cell-based; details: Homo sapiens
Excerpt: Z-138 suspension cells were purchased from ATCC (American Type Culture Collection, Manassas, Va.). RPMI/Glutamax medium, penicillin-streptomycin, heat inactivated fetal bovine serum, and D-PBS were purchased from Life Technologies, Grand Island, N.Y., USA. Odyssey blocking buffer, 800CW goat anti-rabbit IgG (H+L) antibody, and Licor Odyssey infrared scanner were purchased from Licor Biosciences, Lincoln, Nebr., USA. Symmetric di-methyl arginine antibody was purchased from EMD Millipore, Billerica, Mass., USA. 16% Paraformaldehyde was purchased from Electron Microscopy Sciences, Hatfield, Pa., USA.
Z-138 suspension cells were maintained in growth medium (RPMI 1640 supplemented with 10% v/v heat inactivated fetal bovine serum and 100 units/mL penicillin-streptomycin) and cultured at 37° C. under 5% CO2.
Cell Treatment, in Cell Western (ICW) for Detection of Symmetric Di-Methyl Arginine and DNA Content.
Z-138 cells were seeded in assay medium at a concentration of 50,000 cells per mL to a 384-well cell culture plate with 50 μL per well. Compound (100 nL) from 384 well source plates was added directly to 384 well cell plate. Plates were incubated at 37° C., 5% CO2 for 96 hours. After four days of incubation, 40 μL of cells from incubated plates were added to poly-D-lysine coated 384 well culture plates (BD Biosciences 356697). Plates were incubated at room temperature for 30 minutes then incubated at 37° C., 5% CO2 for 5 hours. After the incubation, 40 μL per well of 8% paraformaldehyde in PBS (16% paraformaldahyde was diluted to 8% in PBS) was added to each plate and incubated for 30 minutes. Plates were transferred to a Biotek 405 plate washer and washed 5 times with 100 μL per well of wash buffer (1×PBS with 0.1% Triton X-100 (v/v)). Next 30 μL per well of Odyssey blocking buffer were added to each plate and incubated 1 hour at room temperature. Blocking buffer was removed and 20 μL per well of primary antibody was added (symmetric di-methyl arginine diluted 1:100 in Odyssey buffer with 0.1% Tween 20 (v/v)) and plates were incubated overnight (16 hours) at 4° C. Plates were washed 5 times with 100 μL per well of wash buffer. Next 20 μL per well of secondary antibody was added (1:200 800CW goat anti-rabbit IgG (H+L) antibody, 1:1000 DRAQS (Biostatus limited) in Odyssey buffer with 0.1% Tween 20 (v/v)) and incubated for 1 hour at room temperature. The plates were washed 5 times with 100 μL per well wash buffer then 1 time with 100 μL per well of water. Plates were allowed to dry at room temperature then imaged on the Licor Odyssey machine which measures integrated intensity at 700 nm and 800 nm wavelengths. Both 700 and 800 channels were scanned.
First, the ratio for each well was determined by:
Each plate included fourteen control wells of DMSO only treatment (minimum inhibition) as well as fourteen control wells for maximum inhibition treated with 3 μM of a reference compound (Background wells). The average of the ratio values for each control type was calculated and used to determine the percent inhibition for each test well in the plate. Reference compound was serially diluted three-fold in DMSO for a total of nine test concentrations, beginning at 3 μM. Percent inhibition was determined and IC50 curves were generated using triplicate wells per concentration of compound.

PRMT5/MEP50 = molecular target: T1, PRMT5/MEP50 (Homo sapiens, UniProt O14744); test: PRMT5 Biochemical Assay (PRMT5/MEP50 enzyme assay on peptide substrate, 3H-SAM Flashplate); details: read-out: Biochemical IC50
T1 construct: Expressed full-length human Flag-PRMT5/6His-MeP50 protein complex was purified; made in house; host or cells: Spodoptera frugiperda (SF9) insect cells, baculovirus (pDEST8)
T1 sequence (O14744 with tags, fused parts or gaps): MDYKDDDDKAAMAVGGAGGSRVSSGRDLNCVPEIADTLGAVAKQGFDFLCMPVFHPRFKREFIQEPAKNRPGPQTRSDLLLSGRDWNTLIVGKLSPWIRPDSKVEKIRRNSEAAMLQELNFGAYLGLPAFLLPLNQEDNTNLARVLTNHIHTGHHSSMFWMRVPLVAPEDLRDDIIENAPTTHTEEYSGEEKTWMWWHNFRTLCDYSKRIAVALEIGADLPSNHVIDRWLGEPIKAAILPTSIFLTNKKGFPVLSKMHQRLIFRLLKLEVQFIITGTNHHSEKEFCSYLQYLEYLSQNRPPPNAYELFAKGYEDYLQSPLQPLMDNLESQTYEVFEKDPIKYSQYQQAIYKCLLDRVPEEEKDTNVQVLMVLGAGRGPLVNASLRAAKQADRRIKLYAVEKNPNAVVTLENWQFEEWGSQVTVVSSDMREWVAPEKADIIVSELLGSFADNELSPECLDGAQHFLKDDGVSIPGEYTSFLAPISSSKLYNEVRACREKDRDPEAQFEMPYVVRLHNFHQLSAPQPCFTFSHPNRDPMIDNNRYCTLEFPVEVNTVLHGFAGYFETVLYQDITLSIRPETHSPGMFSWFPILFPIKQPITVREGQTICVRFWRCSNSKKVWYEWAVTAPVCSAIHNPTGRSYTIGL
T1 sequence (Q9BQA1 with tags, fused parts or gaps partner limits assumed): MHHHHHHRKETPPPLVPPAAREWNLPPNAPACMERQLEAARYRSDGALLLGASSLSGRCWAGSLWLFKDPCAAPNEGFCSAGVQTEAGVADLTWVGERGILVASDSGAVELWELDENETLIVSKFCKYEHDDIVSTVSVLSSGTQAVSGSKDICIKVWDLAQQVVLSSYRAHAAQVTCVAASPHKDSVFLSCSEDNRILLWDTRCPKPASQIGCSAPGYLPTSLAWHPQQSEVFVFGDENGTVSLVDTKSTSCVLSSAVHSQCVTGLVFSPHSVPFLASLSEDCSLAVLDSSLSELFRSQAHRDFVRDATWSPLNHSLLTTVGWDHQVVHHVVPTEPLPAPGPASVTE

Z-138 cells [2] = test: Z-138 Proliferation Assay (Cell Titer Glo, 5 days); type: cell-based; details: Homo sapiens
Excerpt: Z-138 Proliferation Assay
Z-138 suspension cells were purchased from ATCC (American Type Culture Collection, Manassas, Va.). RPMI/Glutamax medium, penicillin-streptomycin, heat inactivated fetal bovine serum were purchased from Life Technologies, Grand Island, N.Y., USA. V-bottom polypropylene 384-well plates were purchased from Greiner Bio-One, Monroe, N.C., USA. Cell culture 384-well white opaque plates were purchased from Perkin Elmer, Waltham, Mass., USA. Cell-Titer Gb® was purchased from Promega Corporation, Madison, Wis., USA. SpectraMax M5 plate reader was purchased from Molecular Devices LLC, Sunnyvale, Calif., USA.
Z-138 suspension cells were maintained in growth medium (RPMI 1640 supplemented with 10% v/v heat inactivated fetal bovine serum and cultured at 37° C. under 5% CO2. Under assay conditions, cells were incubated in assay medium (RPMI 1640 supplemented with 10% v/v heat inactivated fetal bovine serum and 100 units/mL penicillin-streptomycin) at 37° C. under 5% CO2.
For the assessment of the effect of compounds on the proliferation of the Z-138 cell line, exponentially growing cells were plated in 384-well white opaque plates at a density of 10,000 cells/ml in a final volume of 50 μl of assay medium. A compound source plate was prepared by performing triplicate nine-point 3-fold serial dilutions in DMSO, beginning at 10 mM (final top concentration of compound in the assay was 20 μM and the DMSO was 0.2%). A 100 nL aliquot from the compound stock plate was added to its respective well in the cell plate. […] After addition of compounds, assay plates were incubated for 5 days at 37° C., 5% CO2, relative humidity >90%.
Cell viability was measured by quantitation of ATP present in the cell cultures, adding 35 μl of Cell Titer Glo® reagent to the cell plates. Luminescence was read in the SpectraMax M5 microplate reader. The concentration of compound inhibiting cell viability by 50% was determined using a 4-parametric fit of the normalized dose response curves.

[3] = Table A-2, 96 hours, symmetric di-methyl arginine, read-out: ICW EC50
[4] = Table A-2, PRMT5/MEP50 4 nM, 3H-SAM 75 nM, peptide 40 nM

SMILES | IC50 (PRMT5/MEP50; Table D-2) [µM] | EC50 (Z-138 cells [2]; Table D-2) [µM] | also measured
O=C(COc1ccccc1)NCC(O)CN1CCc2ccccc2C1 (stereo not shown) [Compound A1] |  |  | EC50 (Z-138 cells [1]; [3]): 0.101 to 1 µM; IC50 (PRMT5/MEP50; [4]): 0.101 to 1 µM
Cn1cnc2ccc(OCC(=O)NCC(O)CN3CCc4ccccc4C3)cc21 (stereo not shown) [Compound A30] |  |  | EC50 (Z-138 cells [1]; [3]): 0.101 to 1 µM; EC50 (Z-138 cells [2]; 120 h, Table A-2, 5 days, top concentration 20 μM): 10 to 50 µM
Cn1nccc1-c1cccc(CC(=O)NCC(O)CN2CCc3ccccc3C2)c1 (stereo not shown) [Compound A54] |  |  | EC50 (Z-138 cells [1]; [3]): 0.101 to 1 µM; IC50 (PRMT5/MEP50; [4]): 0.101 to 1 µM
O=C(Cc1cccc2cccnc12)NCC(O)CN1CCc2ccccc2C1 (stereo not shown) [Compound A60] |  |  | EC50 (Z-138 cells [1]; [3]): 1 to 10 µM; IC50 (PRMT5/MEP50; [4]): 0.101 to 1 µM
Cn1cnc2ccc(NCC(=O)NCC(O)CN3CCc4ccccc4C3)cc21 (stereo not shown) [Compound A69] |  |  | EC50 (Z-138 cells [1]; [3]): 1 to 10 µM; IC50 (PRMT5/MEP50; [4]): 0.101 to 1 µM
O=C(COc1ccccc1N1CCOCC1)NC[C@@H](O)CN1CCc2ccccc2C1 [Compound A78] |  |  | EC50 (Z-138 cells [1]; [3]): 0.101 to 1 µM; IC50 (PRMT5/MEP50; [4]): 0.101 to 1 µM
CN1CCN(c2ccccc2OCC(=O)NC[C@@H](O)CN2CCc3ccccc3C2)CC1 [Compound A85] |  |  | EC50 (Z-138 cells [1]; [3]): 1 to 10 µM; IC50 (PRMT5/MEP50; [4]): 1 to 10 µM
CN(C)CCOc1ccccc1OCC(=O)NC[C@@H](O)CN1CCc2ccccc2C1 [Compound A89] |  |  | EC50 (Z-138 cells [1]; [3]): 1 to 10 µM; IC50 (PRMT5/MEP50; [4]): 0.101 to 1 µM
Cn1ccnc1-c1ccccc1OCC(=O)NCC(O)CN1CCc2ccccc2C1 (stereo not shown) [Compound A138] |  |  | EC50 (Z-138 cells [1]; [3]): 1 to 10 µM; IC50 (PRMT5/MEP50; [4]): 0.101 to 1 µM
Cc1cn(C)c2cccc(OCC(=O)NCC(O)CN3CCc4ccccc4C3)c12 (stereo not shown) [Compound A146] |  |  | EC50 (Z-138 cells [1]; [3]): 0.101 to 1 µM; IC50 (PRMT5/MEP50; [4]): < 0.1 µM
O=C(COc1ccccc1S(=O)(=O)N1CCOCC1)NCC(O)CN1CCc2ccccc2C1 (stereo not shown) [Compound A149] |  |  | EC50 (Z-138 cells [1]; [3]): 0.101 to 1 µM; IC50 (PRMT5/MEP50; [4]): < 0.1 µM
COc1cccc2c1CN(CC(O)COc1cccc(CNC3CCCC3)c1)CC2 (stereo not shown) [Compound D29] | 10 to 40 | 10 to 40 | 
COc1cc2c(cc1OC)CN(CC(O)COc1cccc(CNC3CCCC3)c1)CC2 (stereo not shown) [Compound D30] | > 40 | 10 to 40 | 
CN1CCCCC1COCC(O)CN1CCc2ccccc2C1 (stereo not shown) [Compound D289] | > 40 | > 40 | 
CN1CCC(OCC(O)CN2CCc3ccccc3C2)CC1 (stereo not shown) [Compound D293] | > 40 | > 40 | 
CCn1ccnc1COCC(O)CN1CCc2ccccc2C1 (stereo not shown) [Compound D295] | > 40 | > 40 | 
OC(COC1CCCNC1)CN1CCc2ccccc2C1 (stereo not shown) [Compound D297] | > 40 | > 40 | 
OC(COC1CCNCC1)CN1CCc2ccccc2C1 (stereo not shown) [Compound D298] | > 40 | > 40 | 
CC(OCC(O)CN1CCc2ccccc2C1)c1cccnc1 (stereo not shown) [Compound D299] | 10 to 40 | > 40 | 
OC(COC1Cc2ccccc2C1)CN1CCc2ccccc2C1 (stereo not shown) [Compound D301] | 1 to 10 | > 40 | 
OC(COCC1CC1)CN1CCc2ccccc2C1 (stereo not shown) [Compound D303] | 1 to 10 | > 40 | 
OC(COCC1CCCCO1)CN1CCc2ccccc2C1 (stereo not shown) [Compound D304] | > 40 | > 40 | 
OC(COCC1CCCO1)CN1CCc2ccccc2C1 (stereo not shown) [Compound D305] | 10 to 40 | > 40 | 
OC(COC1CCNC1)CN1CCc2ccccc2C1 (stereo not shown) [Compound D306] | > 40 | > 40 | 
CN1CCC(OCC(O)CN2CCc3ccccc3C2)C1 (stereo not shown) [Compound D307] | > 40 | > 40 | 
OC(COCc1ccccc1)CN1CCc2ccccc2C1 (stereo not shown) [Compound D308] | 10 to 40 | > 40 | 
OC(COC1CCCCCC1)CN1CCc2ccccc2C1 (stereo not shown) [Compound D309] | 1 to 10 | > 40 | 
OC(COC1CCOCC1)CN1CCc2ccccc2C1 (stereo not shown) [Compound D310] | 10 to 40 | > 40 | 
O=C(NCC(O)CN1Cc2ccccc2C1)c1cccc(NC2CCOCC2)c1 (stereo not shown) [Compound E8.] |  |  | EC50 (Z-138 cells [1]; Table E-2, read-out: ICW EC50): 0.101 to 1 µM; IC50 (PRMT5/MEP50; Table E-2): 0.101 to 1 µM

More lines, main results first:

IC50 (PRMT5/MEP50; Table D-2) [µM] | SMILES | EC50 (Z-138 cells [2]; Table D-2) [µM] | also measured
1 to 10 | Cc1nn(-c2ccccc2)c(C)c1COCC(O)CN1CCc2ccccc2C1 (stereo not shown) [Compound D28] | > 40 | 
1 to 10 | CC(C(O)COc1cccc(CNC2CCCC2)c1)N1CCc2ccccc2C1 (stereo not shown) [Compound D33] | > 40 | 
1 to 10 | O=C(c1ccc(Cn2ccc(-c3ccc(OCC(O)CN4CCc5ccccc5C4)cc3)n2)cc1)N1CCCC1 (stereo not shown) [Compound D34] | 10 to 40 | 
0.101 to 1 | COc1cc(Cl)cc(-c2cccc(OCC(O)CN3CCc4ccccc4C3)c2)c1 (stereo not shown) [Compound D110] |  | EC50 (Z-138 cells [1]; Table D-2, read-out: ICW EC50): > 20 µM
0.101 to 1 | N#CCc1cccc(-c2cccc(OCC(O)CN3CCc4ccccc4C3)c2)c1 (stereo not shown) [Compound D111] |  | EC50 (Z-138 cells [1]; Table D-2, read-out: ICW EC50): 1 to 10 µM
0.101 to 1 | Cn1cc2ccc(-c3cccc(OCC(O)CN4CCc5ccccc5C4)c3)cc2n1 (stereo not shown) [Compound D114] |  | EC50 (Z-138 cells [1]; Table D-2, read-out: ICW EC50): > 20 µM
0.101 to 1 | OC(COc1cccc(-c2ccccc2F)c1)CN1CCc2ccccc2C1 (stereo not shown) [Compound D154] |  | EC50 (Z-138 cells [1]; Table D-2, read-out: ICW EC50): 1 to 10 µM
1 to 10 | O=C(Nc1cccc(OCC(O)CN2CCc3ccccc3C2)c1)c1cccnn1 (stereo not shown) [Compound D164] |  | EC50 (Z-138 cells [1]; Table D-2, read-out: ICW EC50): 1 to 10 µM
0.101 to 1 | CCC1c2ccccc2CCN1CC(O)COc1cccc(-c2ccc3ncn(C)c3c2)c1 (stereo not shown) [Compound D179] | > 20 | 
1 to 10 | OC(COCc1c(Cl)cccc1Cl)CN1CCc2ccccc2C1 (stereo not shown) [Compound D280] | 10 to 40 | 
1 to 10 | OC(COc1ccc2c(c1)OCO2)CN1CCc2ccccc2C1 (stereo not shown) [Compound D285] | > 20 | 
0.101 to 1 | CCCCNCc1cccc(COCC(O)CN2CCc3ccccc3C2)c1 (stereo not shown) [Compound D286] | > 20 | 
1 to 10 | COc1cccc(COCC(O)CN2CCc3ccccc3C2)c1 (stereo not shown) [Compound D288] | > 40 | 
1 to 10 | CC(C)(C)OC(=O)N1CC(OCC(O)CN2CCc3ccccc3C2)C1 (stereo not shown) [Compound D290] | > 40 | 
1 to 10 | CC(C)(C)OC(=O)N1CCCC(OCC(O)CN2CCc3ccccc3C2)C1 (stereo not shown) [Compound D291] | > 40 | 
1 to 10 | CC(C)(C)OC(=O)N1CCC(OCC(O)CN2CCc3ccccc3C2)CC1 (stereo not shown) [Compound D292] | > 40 | 
1 to 10 | OC(COCC1CCCCC1)CN1CCc2ccccc2C1 (stereo not shown) [Compound D294] | > 40 | 
0.101 to 1 | OC(COCC1COc2ccccc2O1)CN1CCc2ccccc2C1 (stereo not shown) [Compound D300] | > 40 | 
